Source: patent publication US12065404B2, “C4-carboxylic acid-substituted tryptamine derivatives and methods of using” (priority 2022, dated 2024)
Values joined by “and” are separate entries in the source; they are usually repeats but may differ in a detail not shown here. Equal entries are not always repeated. “Also recorded” adds a separate entry of the source.

Key:
GABAA = GABAA (Homo sapiens, UniProt P14867+P18507+P47870); format: cell-based; conditions: ion channel
[1] = Mouse pharmacokinetic (PK) study, parent compound and psilocin metabolite in plasma; format: in vivo, C57Bl/6 mice; conditions: for F(%) / F(%), M37 considered as an outlier: AUC0-tlast used for p.o. group; for F(%): value might be under-estimated; for F(%), M37 considered as an outlier: i.v. animal M37 considered an outlier
Description: Briefly, the procedure was as follows. […] 19, 2022.

[2] = 1 mg/kg i.v. C(I), 6 h, individual animals
[3] = 1 mg/kg i.v. C(I), 8 h, individual animals
[4] = 1 mg/kg oral C(I), 8 h, individual animals
[5] = 1 mg/kg oral C(I), 24 h, individual animals
[6] = 1 mg/kg oral, individual animals
[7] = 3 mg/kg oral C(I), 24 h, individual animals
[8] = 3 mg/kg oral, individual animals
[9] = 10 mg/kg oral C(I), 24 h, individual animals

Chain of GABAA (P14867 28-456): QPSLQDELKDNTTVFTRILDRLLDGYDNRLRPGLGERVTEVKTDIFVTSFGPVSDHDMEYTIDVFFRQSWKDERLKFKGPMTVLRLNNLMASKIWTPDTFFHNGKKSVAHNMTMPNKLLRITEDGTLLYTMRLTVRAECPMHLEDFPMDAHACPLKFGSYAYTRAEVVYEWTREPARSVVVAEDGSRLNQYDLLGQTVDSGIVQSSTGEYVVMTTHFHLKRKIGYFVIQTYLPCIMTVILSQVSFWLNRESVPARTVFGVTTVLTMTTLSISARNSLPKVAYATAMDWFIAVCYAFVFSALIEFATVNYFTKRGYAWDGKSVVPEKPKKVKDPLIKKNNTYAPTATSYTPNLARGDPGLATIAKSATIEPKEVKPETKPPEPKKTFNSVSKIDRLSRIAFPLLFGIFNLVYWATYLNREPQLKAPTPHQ
Chain of GABAA (P47870 26-512): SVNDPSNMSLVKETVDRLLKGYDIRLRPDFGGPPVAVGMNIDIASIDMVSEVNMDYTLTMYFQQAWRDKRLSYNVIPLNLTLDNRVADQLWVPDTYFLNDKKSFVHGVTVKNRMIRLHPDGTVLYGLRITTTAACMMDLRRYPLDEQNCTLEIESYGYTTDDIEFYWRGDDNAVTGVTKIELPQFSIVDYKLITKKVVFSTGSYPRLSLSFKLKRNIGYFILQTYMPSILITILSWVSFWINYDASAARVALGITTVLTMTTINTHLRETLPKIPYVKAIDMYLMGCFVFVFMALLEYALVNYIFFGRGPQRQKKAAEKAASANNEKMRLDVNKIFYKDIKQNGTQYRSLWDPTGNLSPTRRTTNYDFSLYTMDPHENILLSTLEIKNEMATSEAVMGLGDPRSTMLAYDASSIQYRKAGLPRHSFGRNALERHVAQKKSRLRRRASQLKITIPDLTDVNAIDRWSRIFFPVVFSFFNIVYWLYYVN
Chain of GABAA (P18507 40-475): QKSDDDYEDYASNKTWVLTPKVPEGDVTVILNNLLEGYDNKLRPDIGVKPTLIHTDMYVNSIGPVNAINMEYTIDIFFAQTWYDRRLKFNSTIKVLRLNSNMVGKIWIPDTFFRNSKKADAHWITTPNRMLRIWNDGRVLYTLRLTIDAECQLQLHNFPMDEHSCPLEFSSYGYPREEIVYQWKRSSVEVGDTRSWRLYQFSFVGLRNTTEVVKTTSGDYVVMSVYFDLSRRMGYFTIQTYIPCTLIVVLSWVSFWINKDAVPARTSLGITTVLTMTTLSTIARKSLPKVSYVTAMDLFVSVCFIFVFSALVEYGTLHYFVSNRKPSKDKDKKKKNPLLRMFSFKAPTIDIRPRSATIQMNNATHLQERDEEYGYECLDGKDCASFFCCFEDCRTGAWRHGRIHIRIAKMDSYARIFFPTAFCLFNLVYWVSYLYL

With `CN(C)CCc1c[nH]c2cccc(OC(=O)c3ccc(Br)cc3)c12` [C(I)] the IC50 (GABAA; blocker (BL)) was greater than 100 µM, the EC50 (GABAA; opener (OP)) was greater than 100 µM and the “Plasma concentration of C(I)” value ([1]; 1 mg/kg i.v. C(I), 5 min, individual animals) was 2620 ng/mL and 118 ng/mL and 94.4 ng/mL. For the same compound, the “Plasma concentration of C(I)” value ([1]; 1 mg/kg i.v. C(I), 0.25 h, individual animals) was 1250 ng/mL and 58.5 ng/mL and 48.2 ng/mL, the “Plasma concentration of C(I)” value ([1]; 1 mg/kg i.v. C(I), 0.5 h, individual animals) was 348 ng/mL and 33.4 ng/mL and 30.4 ng/mL and the “Plasma concentration of C(I)” value ([1]; 1 mg/kg i.v. C(I), 1 h, individual animals) was 128 ng/mL and 17.9 ng/mL and 13.8 ng/mL. For the same compound, the “Plasma concentration of C(I)” value ([1]; 1 mg/kg i.v. C(I), 2 h, individual animals) was 52.8 ng/mL and 3.61 ng/mL and 3.40 ng/mL, the “Plasma concentration of C(I)” value ([1]; 1 mg/kg i.v. C(I), 4 h, individual animals) was 8.88 ng/mL and 0.984 ng/mL and 0.509 ng/mL and the “Plasma concentration of C(I)” value [1, 2] was 4.65 ng/mL and 0.363 ng/mL and BLQ (BLQ denotes below the lower limit of quantitation (0.5 ng/mL).). The “Plasma concentration of psilocin” value [1, 2] was “BLQ (BLQ denotes below the lower limit of quantitation (0.2 ng/ml).)”, the “Plasma concentration of C(I)” value [1, 3] was “BLQ (BLQ denotes below the lower limit of quantitation (0.5 ng/mL).); also recorded: No Peak” and the “Plasma concentration of psilocin” value [1, 3] was “BLQ (BLQ denotes below the lower limit of quantitation (0.2 ng/ml).)”. For the same compound, the “Plasma concentration of C(I)” value ([1]; 1 mg/kg oral C(I), 0.25 h, individual animals) was 0.617 ng/mL and 0.410 ng/mL and 0.910 ng/mL, the “Plasma concentration of C(I)” value ([1]; 1 mg/kg oral C(I), 0.5 h, individual animals) was 0.816 ng/mL and 0.535 ng/mL and 1.28 ng/mL and the “Plasma concentration of C(I)” value ([1]; 1 mg/kg oral C(I), 1 h, individual animals) was “BLQ (BLQ denotes below the lower limit of quantitation (0.5 ng/mL).) and 1.02 ng/mL”. The “Plasma concentration of C(I)” value ([1]; 1 mg/kg oral C(I), 2 h, individual animals) was “BLQ (BLQ denotes below the lower limit of quantitation (0.5 ng/mL).) and 0.600 ng/mL”, the “Plasma concentration of C(I)” value ([1]; 1 mg/kg oral C(I), 4 h, individual animals) was “BLQ (BLQ denotes below the lower limit of quantitation (0.5 ng/mL).)” and the “Plasma concentration of C(I)” value ([1]; 1 mg/kg oral C(I), 6 h, individual animals) was “BLQ (BLQ denotes below the lower limit of quantitation (0.5 ng/mL).)”. For the same compound, the “Plasma concentration of C(I)” value [1, 4] was “BLQ (BLQ denotes below the lower limit of quantitation (0.5 ng/mL).)”, the “Plasma concentration of psilocin” value [1, 4] was “BLQ (BLQ denotes below the lower limit of quantitation (0.2 ng/ml).)” and the “Plasma concentration of C(I)” value [1, 5] was “No Peak and No (2×)”. The “Plasma concentration of psilocin” value [1, 5] was “No Peak; also recorded: BLQ (BLQ denotes below the lower limit of quantitation (0.2 ng/ml).)”, the “F(%)” value [1, 6] was 0.554% and 0.0450% and 0.465% and the “F(%), M37 considered as an outlier” value [1, 6] was 3.59% and 0.291% and 3.01%. For the same compound, the “F(%), M37 considered as an outlier” value ([1]; 1 mg/kg oral, mean ± SD) was 2.30 ± 1.76% and 2.30%, the “Plasma concentration of C(I)” value ([1]; 3 mg/kg oral C(I), 0.25 h, individual animals) was 2.13 ng/mL and 2.34 ng/mL and the “Plasma concentration of C(I)” value ([1]; 3 mg/kg oral C(I), 0.5 h, individual animals) was 2.16 ng/mL and 1.99 ng/mL. The “Plasma concentration of C(I)” value ([1]; 3 mg/kg oral C(I), 1 h, individual animals) was 1.56 ng/mL and 1.33 ng/mL, the “Plasma concentration of C(I)” value ([1]; 3 mg/kg oral C(I), 2 h, individual animals) was 0.705 ng/mL and 0.720 ng/mL and the “Plasma concentration of C(I)” value ([1]; 3 mg/kg oral C(I), 4 h, individual animals) was 0.569 ng/mL and 0.873 ng/mL and 1.28 ng/mL. The “Plasma concentration of C(I)” value ([1]; 3 mg/kg oral C(I), 6 h, individual animals) was 0.310 ng/mL and 0.250 ng/mL, the “Plasma concentration of C(I)” value ([1]; 3 mg/kg oral C(I), 8 h, individual animals) was “BLQ (BLQ denotes below the lower limit of quantitation (0.5 ng/mL).)” and the “Plasma concentration of C(I)” value [1, 7] was “No Peak”. For the same compound, the “Plasma concentration of psilocin” value [1, 7] was “No Peak”, the “F(%)” value [1, 8] was 0.484% and 0.523% and the “F(%), M37 considered as an outlier” value [1, 8] was 3.02% and 3.13% and 3.39%. The “F(%), M37 considered as an outlier” value ([1]; 3 mg/kg oral, mean ± SD) was 3.18 ± 0.189% and 3.18%, the “Plasma concentration of C(I)” value ([1]; 10 mg/kg oral C(I), 0.25 h, individual animals) was 3.73 ng/mL and 6.07 ng/mL and the “Plasma concentration of C(I)” value ([1]; 10 mg/kg oral C(I), 0.5 h, individual animals) was 7.10 ng/mL and 10.9 ng/mL. For the same compound, the “Plasma concentration of C(I)” value ([1]; 10 mg/kg oral C(I), 1 h, individual animals) was 5.29 ng/mL and 7.46 ng/mL, the “Plasma concentration of C(I)” value ([1]; 10 mg/kg oral C(I), 2 h, individual animals) was 2.51 ng/mL and 1.47 ng/mL and 3.80 ng/mL and the “Plasma concentration of C(I)” value ([1]; 10 mg/kg oral C(I), 4 h, individual animals) was 2.06 ng/mL and 3.01 ng/mL. The “Plasma concentration of C(I)” value ([1]; 10 mg/kg oral C(I), 6 h, individual animals) was 1.18 ng/mL and 0.661 ng/mL, the “Plasma concentration of C(I)” value ([1]; 10 mg/kg oral C(I), 8 h, individual animals) was 0.253 ng/mL and 1.10 ng/mL and 0.283 ng/mL and the “Plasma concentration of C(I)” value [1, 9] was “No (2×) and No Peak”. For the same compound, the “Plasma concentration of psilocin” value [1, 9] was “BLQ (BLQ denotes below the lower limit of quantitation (0.2 ng/ml).)” and the “F(%), M37 considered as an outlier” value ([1]; 10 mg/kg oral, individual animals) was 2.71% and 2.90% and 4.06%.
